Here are results for eleven molecules from US20110082212A1, “MULTI-S[…] ANDROGEN RECEPTOR MODULATORS AND METHODS OF USE THEREOF” (priority 2002, published 2011).

Assay [1] deals with castrated male rats (prostate, seminal vesicles, levator ani muscle). Put plainly: Androgenic and anabolic activity of compounds 1 and 2 in castrated rat model (organ weights). The following applies: 14 days; for Seminal Vesicles weight: intact 101 ± 26.8, castrated 8.1 ± 1.8; for Levator Ani Muscle weight: intact 102 ± 8.1, castrated 40.9 ± 9.4; for Prostate weight: intact 100 ± 14.3, castrated 6.2 ± 2.5. It counts as in vivo, Sprague-Dawley rats. An excerpt: Intact Controls (not castrated, untreated) and Castrated Controls (castrated, untreated) were used as the control groups.

For assay [2], the target named is T1, androgen receptor (Rattus norvegicus, UniProt P15207).
T1 construct: from tissue; host or cells: Rat ventral prostate cytosol
T1 sequence (P15207 1-902): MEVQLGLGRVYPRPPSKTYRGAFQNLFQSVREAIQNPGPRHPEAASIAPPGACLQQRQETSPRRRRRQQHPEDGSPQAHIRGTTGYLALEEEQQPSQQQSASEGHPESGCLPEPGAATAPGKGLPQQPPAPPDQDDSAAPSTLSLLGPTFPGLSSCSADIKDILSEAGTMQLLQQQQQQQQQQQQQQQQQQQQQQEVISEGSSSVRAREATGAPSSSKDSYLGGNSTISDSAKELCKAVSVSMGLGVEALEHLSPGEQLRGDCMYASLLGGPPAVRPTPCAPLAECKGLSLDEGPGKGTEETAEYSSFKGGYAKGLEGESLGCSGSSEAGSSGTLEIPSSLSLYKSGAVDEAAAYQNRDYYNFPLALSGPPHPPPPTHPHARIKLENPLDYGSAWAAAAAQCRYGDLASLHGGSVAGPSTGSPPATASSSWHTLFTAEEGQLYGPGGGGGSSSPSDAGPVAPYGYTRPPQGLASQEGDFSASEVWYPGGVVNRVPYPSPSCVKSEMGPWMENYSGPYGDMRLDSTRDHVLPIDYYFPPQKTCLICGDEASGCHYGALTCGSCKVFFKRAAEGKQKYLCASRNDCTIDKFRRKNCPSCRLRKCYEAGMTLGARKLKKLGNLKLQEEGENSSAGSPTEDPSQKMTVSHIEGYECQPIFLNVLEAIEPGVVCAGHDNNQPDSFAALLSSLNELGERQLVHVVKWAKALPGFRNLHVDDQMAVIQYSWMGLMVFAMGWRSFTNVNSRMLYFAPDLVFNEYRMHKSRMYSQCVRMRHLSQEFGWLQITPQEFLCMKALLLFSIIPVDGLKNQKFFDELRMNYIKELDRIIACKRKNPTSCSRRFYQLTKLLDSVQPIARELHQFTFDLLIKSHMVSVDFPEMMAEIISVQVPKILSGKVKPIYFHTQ
Description: Androgen receptor binding affinities. The following applies: for RBA: relative binding affinity, androgen receptor.

The subject of assay [3] is castrated male rats (ventral prostate, seminal vesicles, levator ani muscle). Description: Androgenic and anabolic activity of compound 7 in castrated male rats (organ weights, dose response). It counts as in vivo, SD rats. The following applies: 14 days. Here is the method:
(§1) Forty-five male SD rats, weighing approximately 200 g, were randomly divided into nine groups with five rats per group. One day before treatment, groups 1 through 8 were castrated via a scrotal incision under anesthesia. Group 9 served as an intact vehicle control. Compound 7 was dissolved in a vehicle containing DMSO (5%, v/v) in PEG 300. Groups 1 through 7 received daily subcutaneous injections of compound 7 at a dose rate of 0.05, 0.1, 0.3, 0.5, 0.75, 1, and 3 mg/day, respectively. Groups 8 and 9 received vehicle. […] This dose rate was chosen based on the results from the aforementioned study in castrated rats. Rats were sacrificed after 14 days treatment. Serum samples were collected and stored at −80° C. The ventral prostate, seminal vesicles, and levator ani muscle were removed, cleared of extraneous tissue, and weighed. All organ weights were normalized to body weight and compared. The weights of the prostate and seminal vesicles were used to evaluate androgenic activity, while the levator ani muscle weight was used as a measurement of anabolic activity.

The subject of assay [4] is intact male rats (ventral prostate, seminal vesicles, levator ani muscle). Description: Pharmacologic activity of TP and compound 7 in intact male rats (organ weights). The conditions noted are these: 0.5 mg/day, 14 days. It counts as in vivo. The protocol: as §1
Assay [5] deals with serum testosterone. Put plainly: Serum testosterone concentrations in intact male rats (EIA). It counts as in vivo. The conditions noted are these: 0.5 mg/day, 14 days, individual animals (n=5/group), detection limit 0.04 ng/mL, intact rats 4.47±1.66. The protocol: as §1
The subject of assay [6] is LH and FSH levels. Description: Serum LH and FSH levels in castrated rats treated with compound 7 (RIA). It counts as in vivo, SD rats. The protocol: as §1
The mark [7] stands for this setting: daily s.c., nonlinear regression of dose-response.

Structures are written as SMILES. Where “and” joins values, the source holds several entries; their conditions need not be identical. Equal values may be shown once. Bounds are passed on as bounds.

Take `C[C@](O)(COc1ccc(F)c(F)c1)C(=O)Nc1ccc([N+](=O)[O-])c(C(F)(F)F)c1` [Compound 1]: the “levator ani muscle weight compared with intact animals” value in assay [1] (1 mg/d) is on record as “maintain the levator ani muscle weight of castrated animals in the same level as that of intact animals”. For the same molecule, in assay [1] (1 mg/day via osmotic pump), the “Seminal Vesicles weight” value was found to be 30.9 ± 5.7 and the “Levator Ani Muscle weight” value was 122.5 ± 10.4. This molecule yielded a Prostate weight in assay [1] (1 mg/day via osmotic pump, normalized to body weight) of 40.3 ± 10.0. In assay [1] (1 mg/day, daily injection), the Prostate weight was determined as 33.1 ± 8.5, the “Seminal Vesicles weight” value came out at 23.6 ± 8.8 and the “Levator Ani Muscle weight” value came out at 112.8 ± 9.4. This molecule showed an RBA in assay [2] of 17.6%.
For the molecule `C[C@](O)(COc1c(F)c(F)c(F)c(F)c1F)C(=O)Nc1ccc([N+](=O)[O-])c(C(F)(F)F)c1` [Compound 2], in assay [1] (1 mg/day, daily injection), the Prostate weight came out at 7.2 ± 1.4, the “Seminal Vesicles weight” value is recorded as 7.2 ± 0.9 and the “Levator Ani Muscle weight” value turned out to be 55.83 ± 2.84. In assay [2], this molecule displayed an RBA of 13.3%.
As for `C[C@](O)(COc1ccc(F)c(F)c1F)C(=O)Nc1ccc([N+](=O)[O-])c(C(F)(F)F)c1` [Compound 3], in assay [2], affinity was put at a Ki of 11.3 ± 1.1 nM and the RBA stood at 3.1%.
Taken in the same sequence, the figures for `C[C@](O)(COc1ccc(F)cc1F)C(=O)Nc1ccc([N+](=O)[O-])c(C(F)(F)F)c1` [Compound 5] were 3.2 ± 0.3 nM and 10.9%.
Turning to `C[C@](O)(COc1cc(F)cc(F)c1F)C(=O)Nc1ccc([N+](=O)[O-])c(C(F)(F)F)c1` [Compound 6], in assay [2], the inhibition constant Ki was 9.1 ± 0.6 nM and the RBA is on record as 3.4%.
As to `C[C@](O)(COc1ccc(Cl)c(F)c1)C(=O)Nc1ccc([N+](=O)[O-])c(C(F)(F)F)c1` [Compound 7], the “organ weights (ventral prostate, seminal vesicles, levator ani muscle) restored relative to intact controls” value in assay [3] (3 mg/day s.c.) is “up to 130%”. In addition, in assay [3] (setting [7]), the “ED50 in levator ani muscle” value was 0.17 ± 0.04 mg/day, the ED50 in prostate stood at 0.77 ± 0.06 mg/day and the “ED50 in seminal vesicle” value is 0.88 ± 0.14 mg/day. Also, in assay [4], the “effect on levator ani muscle weight” value is reported as “maintained levator ani muscle weight”; the “effect on size of prostate and seminal vesicles” value is “reduced the size of the prostate and seminal vesicles”. Moreover, in assay [5], the serum testosterone concentration was < 0.04 ng/mL and 0.11 ng/mL and 0.46 ng/mL. For the same molecule, in assay [6], the “lowest dose reversing FSH levels back to physiologic levels” value was determined as 0.5 mg/day and the “lowest dose reversing LH levels back to physiologic levels” value worked out at 0.3 mg/day. In addition, the FSH in assay [6] (0.1 mg/day, intact control 11.2 ± 2.0, castrated control 63.4 ± 5.0) is reported as 53.0 ± 5.1 ^I ng/mL. Further, the LH in assay [6] (0.1 mg/day, intact control <0.2, castrated control 8.4 ± 2.5) was 3.6 ± 0.8 ^I ng/mL. Further, in assay [6] (0.3 mg/day), the FSH is 26.6 ± 8.9 ^I ng/mL and the LH was <0.2 ^C ng/mL. Further, in assay [6] (0.5 mg/day), the FSH is recorded as 12.4 ± 1.1 ^C ng/mL and the LH is recorded as <0.2 ^C ng/mL. Moreover, in assay [6] (0.75 mg/day), the FSH is 12.8 ± 1.6 ^C ng/mL and the LH is on record as <0.2 ^C ng/mL. Also, in assay [2], the Ki came to 4.9 ± 0.3 nM and the RBA was determined as 9.1%.
In assay [2], `C[C@](O)(COc1ccc(F)c(Cl)c1)C(=O)Nc1ccc([N+](=O)[O-])c(C(F)(F)F)c1` [Compound 8] displayed a Ki of 10.3 ± 2 nM and an RBA of 4.3%.
For `C[C@](O)(COc1ccc(Cl)c(Cl)c1)C(=O)Nc1ccc([N+](=O)[O-])c(C(F)(F)F)c1` [Compound 9] the same measures were 1 ± 0.09 nM and 20.2%.
For `C[C@](O)(COc1ccccc1F)C(=O)Nc1ccc([N+](=O)[O-])c(C(F)(F)F)c1` [Compound 10] the same measures were 3.4 ± 0.34 nM and 5.9%.
For the molecule `C[C@](O)(COc1c(F)cc(F)cc1F)C(=O)Nc1ccc([N+](=O)[O-])c(C(F)(F)F)c1` [Compound 11], the Ki in assay [2] was found to be 10.3 ± 2 nM.
Turning to `CCC(=O)O[C@H]1CC[C@H]2[C@@H]3CCC4=CC(=O)CC[C@]4(C)[C@H]3CC[C@]12C` [TP, testosterone propionate, reference compound], the “effect on growth of prostate, seminal vesicles and levator ani muscle” value in assay [4] is on record as “stimulated growth in all three organs”.

As a reminder, the Ki is a measure of affinity in units of concentration, obtained from inhibition or displacement. A higher Ki goes with weaker binding.
